Experimental data published in patent US7855205B2, “Pyrimidinyl substituted fused-pyrrolyl compounds useful in treating kinase disorders” (Janssen Pharmaceutica NV, priority 2004, dated 2010).

What was measured:
VEGF-R2 = target: T1, VEGF-R2 (Rattus norvegicus, UniProt O08775); experiment: VEGF-R2 Screening Assay; format: biochemical; settings: 33P-γ-ATP incorporation, 10 μM ATP
T1 construct: polyhistidine (N)
Outline: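 The N-terminally His-tagged rat VEGF-R2 kinase domain (aa 786-1343), diluted in 50 mM Tris-HCl pH 8.0 with 0.1% BSA, phosphorylated a biotinylated histone-H1 peptide with 33P-γ-ATP on Flashplates for 1 h at 30 °C in 1% DMSO. After washes with EDTA/PBS, immobilized 33P was counted by scintillation.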

HCT-116 colon carcinoma = experiment: Inhibition of cell proliferation (14C-thymidine incorporation), HCT-116; format: cell-based; settings: Homo sapiens, HCT-116, HCT116
Outline: (§1)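 Cells (3000-8000/well) grown 24 h at 37° C, 5% CO2, then given compound in DMSO for 24 h before adding methyl 14C-thymidine (0.2 uCi/well) for a further 24 h with drug. After PBS washes, incorporation into DNA counted by scintillation.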

[1] = test system: HeLa cervical adenocarcinoma; experiment: Inhibition of cell proliferation (14C-thymidine incorporation), HeLa; format: cell-based; settings: Homo sapiens;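 note: HeLa cells in 96-well scintillating plates, compound for 24 h then 24 h more with 14C-thymidine, counting label built into new DNA against DMSO-only control wells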
A375 malignant melanoma = experiment: Inhibition of cell proliferation (14C-thymidine incorporation), A375; format: cell-based, human; settings: Homo sapiens, A-375
Outline: as §1

Aurora-A = target: T2, Aurora-A (Mus musculus, UniProt P97477); experiment: Aurora-A Screening Assay; format: biochemical, murine; settings: 33P-γ-ATP incorporation, 10 μM ATP
T2 construct: made in house; host or cells: sf9 insect cells
T2 sequence (P97477 1-395): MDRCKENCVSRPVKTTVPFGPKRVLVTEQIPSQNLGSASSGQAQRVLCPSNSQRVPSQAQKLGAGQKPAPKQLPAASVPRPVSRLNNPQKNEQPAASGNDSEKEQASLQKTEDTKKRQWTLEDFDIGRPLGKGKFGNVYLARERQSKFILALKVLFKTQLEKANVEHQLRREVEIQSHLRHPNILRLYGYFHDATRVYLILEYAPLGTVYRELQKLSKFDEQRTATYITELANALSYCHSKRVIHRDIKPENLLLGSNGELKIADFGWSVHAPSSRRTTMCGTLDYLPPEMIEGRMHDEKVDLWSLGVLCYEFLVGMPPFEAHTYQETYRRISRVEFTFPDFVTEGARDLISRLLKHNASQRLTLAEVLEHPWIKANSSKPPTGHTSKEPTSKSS

RET = target: T3, RET (Homo sapiens, UniProt P07949); experiment: RET Kinase Screening Assay; format: biochemical; settings: 33P-γ-ATP incorporation, 10 μM ATP
T3 construct: the RET cytoplasmic domain consisting of the last 492 amino acids of the intracellular domain of the RET tyrosine kinase; histidine tag (N); made in house; host or cells: Hi5 insect cells
T3 sequence (P07949 658-1114 limits assumed): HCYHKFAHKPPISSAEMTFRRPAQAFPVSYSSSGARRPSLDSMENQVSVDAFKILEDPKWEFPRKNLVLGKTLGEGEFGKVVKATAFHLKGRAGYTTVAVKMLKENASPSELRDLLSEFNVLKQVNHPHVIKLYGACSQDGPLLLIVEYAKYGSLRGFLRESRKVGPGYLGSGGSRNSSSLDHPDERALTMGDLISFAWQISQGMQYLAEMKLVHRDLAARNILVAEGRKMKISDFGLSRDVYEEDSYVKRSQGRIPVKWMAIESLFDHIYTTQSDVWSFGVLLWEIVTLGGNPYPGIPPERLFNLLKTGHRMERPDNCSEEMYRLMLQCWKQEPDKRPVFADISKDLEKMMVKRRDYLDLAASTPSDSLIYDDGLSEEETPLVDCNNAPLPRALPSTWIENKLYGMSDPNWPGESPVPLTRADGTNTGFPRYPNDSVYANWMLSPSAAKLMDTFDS

CDK1:Cyclin-B = target: T4, CDK1:Cyclin-B (Homo sapiens, UniProt P06493); experiment: CDK1 Screening Assay; format: biochemical; settings: 33P-γ-ATP incorporation, 10 μM ATP
T4 construct: purchased New England Biolabs, Beverly, Mass; 6020; host or cells: insect cells
Outline: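 Human CDK1/cyclin B co-expressed in insect cells (30 ng/well) in 50 mM Tris pH 8, 10 mM MgCl2, with 10 μM ATP, 33P-γ-ATP and 0.025 μM biotinylated histone H1 peptide (reaction-mix levels); 1% DMSO final. 1 h at 30° C. 33P incorporation into streptavidin-captured peptide by scintillation counting.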

HER2 = target: T5, HER2 (Homo sapiens, UniProt P04626); experiment: HER2 kinase Screening Assay; format: biochemical; settings: 33P-γ-ATP incorporation, 10 μM ATP
T5 construct: polyhistidine (N)
T5 sequence (P04626 676-1255 limits assumed): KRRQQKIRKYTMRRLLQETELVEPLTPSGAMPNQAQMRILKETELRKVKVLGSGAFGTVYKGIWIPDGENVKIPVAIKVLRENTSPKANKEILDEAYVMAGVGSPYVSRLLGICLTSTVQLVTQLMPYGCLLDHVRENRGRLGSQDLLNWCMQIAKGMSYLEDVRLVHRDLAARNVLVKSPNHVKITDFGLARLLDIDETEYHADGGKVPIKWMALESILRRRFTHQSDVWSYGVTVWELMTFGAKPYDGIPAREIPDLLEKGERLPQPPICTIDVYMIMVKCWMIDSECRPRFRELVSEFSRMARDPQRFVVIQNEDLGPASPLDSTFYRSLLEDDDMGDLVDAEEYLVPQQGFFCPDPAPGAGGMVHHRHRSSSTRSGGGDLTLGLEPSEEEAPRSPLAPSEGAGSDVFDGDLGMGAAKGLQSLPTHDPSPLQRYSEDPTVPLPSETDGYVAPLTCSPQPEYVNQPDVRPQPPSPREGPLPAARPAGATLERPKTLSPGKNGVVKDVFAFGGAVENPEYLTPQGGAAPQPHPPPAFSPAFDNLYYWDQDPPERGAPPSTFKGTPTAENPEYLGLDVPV

T4 sequence (P06493 whole entry): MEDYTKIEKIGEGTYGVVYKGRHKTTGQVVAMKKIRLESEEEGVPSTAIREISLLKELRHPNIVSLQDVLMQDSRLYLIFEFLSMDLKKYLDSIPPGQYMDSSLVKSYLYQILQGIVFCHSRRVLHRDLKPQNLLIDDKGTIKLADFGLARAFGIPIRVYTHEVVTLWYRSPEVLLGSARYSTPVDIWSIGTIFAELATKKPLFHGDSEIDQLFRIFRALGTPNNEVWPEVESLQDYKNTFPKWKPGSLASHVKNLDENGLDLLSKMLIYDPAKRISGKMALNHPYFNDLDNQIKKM
T4 sequence (P14635 whole entry partner): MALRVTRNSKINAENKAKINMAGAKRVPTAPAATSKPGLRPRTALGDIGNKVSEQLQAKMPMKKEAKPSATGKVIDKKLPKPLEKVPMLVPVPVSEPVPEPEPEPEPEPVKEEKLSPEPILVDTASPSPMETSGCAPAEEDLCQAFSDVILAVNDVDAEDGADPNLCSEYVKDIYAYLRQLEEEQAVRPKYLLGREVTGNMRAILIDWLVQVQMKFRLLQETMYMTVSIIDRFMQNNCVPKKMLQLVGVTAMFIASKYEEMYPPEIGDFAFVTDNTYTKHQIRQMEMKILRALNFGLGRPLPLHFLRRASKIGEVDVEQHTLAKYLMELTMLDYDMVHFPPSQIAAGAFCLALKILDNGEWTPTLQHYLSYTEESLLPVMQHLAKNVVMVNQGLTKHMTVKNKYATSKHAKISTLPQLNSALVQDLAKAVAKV
T1 sequence (O08775 786-1343): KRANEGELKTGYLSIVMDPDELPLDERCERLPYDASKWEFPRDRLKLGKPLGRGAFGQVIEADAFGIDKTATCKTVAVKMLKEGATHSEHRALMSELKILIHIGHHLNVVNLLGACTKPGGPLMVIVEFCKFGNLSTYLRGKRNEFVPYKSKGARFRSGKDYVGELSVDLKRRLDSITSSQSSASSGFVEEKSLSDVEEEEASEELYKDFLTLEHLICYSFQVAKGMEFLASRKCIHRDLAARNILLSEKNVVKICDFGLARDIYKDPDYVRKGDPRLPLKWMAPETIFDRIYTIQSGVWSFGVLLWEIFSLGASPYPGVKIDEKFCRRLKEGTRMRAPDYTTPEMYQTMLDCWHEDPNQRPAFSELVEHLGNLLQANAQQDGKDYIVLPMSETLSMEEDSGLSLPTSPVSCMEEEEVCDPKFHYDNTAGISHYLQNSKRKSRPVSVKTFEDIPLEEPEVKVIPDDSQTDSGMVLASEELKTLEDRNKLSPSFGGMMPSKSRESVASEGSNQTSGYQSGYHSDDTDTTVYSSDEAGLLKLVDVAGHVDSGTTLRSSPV

Row | Structure (SMILES) | IC50 (VEGF-R2) | IC50 (HCT-116 colon carcinoma) | IC50 [1] | IC50 (A375 malignant melanoma) | IC50 (Aurora-A) | IC50 (RET) | IC50 (CDK1:Cyclin-B) | IC50 (HER2)
1 | COc1cc(Nc2nccc(-c3c[nH]c4ncccc34)n2)cc(OC)c1OC [Cpd 2, [4-(1H-Pyrrolo[2,3-b]pyridin-3-yl)-pyrimidin-2-yl]-(3,4,5-trimethoxy-phenyl)-amine] | 0.046 µM | 0.56 µM | 0.33 µM | 0.75 µM | 0.063 µM |  | 0.169 µM | 0.206 µM
2 | c1ccc(Nc2nccc(-c3c[nH]c4ncccc34)n2)cc1 [Cpd 3, Phenyl-[4-(1H-pyrrolo[2,3-b]pyridin-3-yl)-pyrimidin-2-yl]-amine] | 0.213 µM | 0.26 µM | 0.382 µM | 0.468 µM | 0.159 µM | 1 µM | 0.054 µM | 0.032 µM
3 | c1cnc2[nH]cc(-c3ccnc(Nc4ccc(CCN5CCNCC5)cc4)n3)c2c1 [Cpd 20, [4-(2-piperazin-1-yl-ethyl)-phenyl]-[4-(1H-pyrrolo[2,3-b]pyridin-3-yl)-pyrimidin-2-yl]-amine] | 0.186 µM | 0.037 µM | 0.14 µM | 0.11 µM | 0.253 µM | 0.892 µM | 0.134 µM | 0.025 µM
4 | CN1CCN(CCc2ccc(Nc3nccc(-c4c[nH]c5ncccc45)n3)cc2)CC1 [Cpd 21, {4-[2-(4-Methyl-piperazin-1-yl)-ethyl]-phenyl}-[4-(1H-pyrrolo[2,3-b]pyridin-3-yl)-pyrimidin-2-yl]-amine] | 0.075 µM | 0.0159 µM | 0.0315 µM | 0.0295 µM | 0.197 µM |  | 0.068 µM | 0.009 µM
5 | CN(C)CCc1ccc(Nc2nccc(-c3c[nH]c4ncccc34)n2)cc1 [Cpd 23, [4-(2-Dimethylamino-ethyl)-phenyl]-[4-(1H-pyrrolo[2,3-b]pyridin-3-yl)-pyrimidin-2-yl]-amine] | 0.066 µM | 0.025 µM | 0.03 µM | 0.024 µM | 0.257 µM |  | 0.039 µM | 0.012 µM
6 | CCN(CC)CCc1ccc(Nc2nccc(-c3c[nH]c4ncccc34)n2)cc1 [Cpd 24, [4-(2-Diethylamino-ethyl)-phenyl]-[4-(1H-pyrrolo[2,3-b]pyridin-3-yl)-pyrimidin-2-yl]-amine] | 0.089 µM | 0.018 µM | 0.034 µM | 0.031 µM | 0.244 µM |  | 0.028 µM | 0.009 µM
7 | CNCCc1ccc(Nc2nccc(-c3c[nH]c4ncccc34)n2)cc1 [Cpd 25, [4-(2-Methylamino-ethyl)-phenyl]-[4-(1H-pyrrolo[2,3-b]pyridin-3-yl)-pyrimidin-2-yl]-amine] | 0.093 µM | 0.068 µM | 0.062 µM | 0.04 µM | 0.182 µM |  | 0.051 µM | 0.012 µM
8 | CCNCCc1ccc(Nc2nccc(-c3c[nH]c4ncccc34)n2)cc1 [Cpd 26, [4-(2-Ethylamino-ethyl)-phenyl]-[4-(1H-pyrrolo[2,3-b]pyridin-3-yl)-pyrimidin-2-yl]-amine] | 0.094 µM | 0.0135 µM | 0.026 µM | 0.0222 µM | 0.157 µM |  | 0.014 µM | 0.006 µM

Second part, the molecule after the results:

Row | IC50 (VEGF-R2) | IC50 (HCT-116 colon carcinoma) | IC50 [1] | IC50 (A375 malignant melanoma) | IC50 (Aurora-A) | IC50 (RET) | IC50 (CDK1:Cyclin-B) | IC50 (HER2) | Structure (SMILES)
9 | 0.087 µM | 0.022 µM | 0.056 µM | 0.066 µM | 0.159 µM | 0.337 µM | 0.019 µM | 0.008 µM | OCCc1ccc(Nc2nccc(-c3c[nH]c4ncccc34)n2)cc1 [Cpd 1, 2-{4-[4-(1H-Pyrrolo[2,3-b]pyridin-3-yl)-pyrimidin-2-ylamino]-phenyl}-ethanol]
10 | 0.01 µM | 0.062 µM | 0.062 µM | 0.061 µM | 0.173 µM | 1.41 µM | 0.021 µM | 0.01 µM | OCCOc1ccc(Nc2nccc(-c3c[nH]c4ncccc34)n2)cc1 [Cpd 4, 2-{4-[4-(1H-Pyrrolo[2,3-b]pyridin-3-yl)-pyrimidin-2-ylamino]-phenoxy}-ethanol]
11 | 0.065 µM | 0.013 µM | 0.029 µM | 0.021 µM | 0.162 µM |  | 0.032 µM | 0.011 µM | c1cnc2[nH]cc(-c3ccnc(Nc4ccc(CCN5CCCC5)cc4)n3)c2c1 [Cpd 19, [4-(2-Pyrrolidin-1-yl-ethyl)-phenyl]-[4-(1H-pyrrolo[2,3-b]pyridin-3-yl)-pyrimidin-2-yl]-amine]
12 | 0.084 µM | 0.018 µM | 0.035 µM | 0.055 µM | 0.173 µM | 0.587 µM | 0.074 µM | 0.011 µM | c1cnc2[nH]cc(-c3ccnc(Nc4ccc(CCN5CCOCC5)cc4)n3)c2c1 [Cpd 22, [4-(2-Morpholin-4-yl-ethyl)-phenyl]-[4-(1H-pyrrolo[2,3-b]pyridin-3-yl)-pyrimidin-2-yl]-amine]
